Data: paper PMC3847553, “Kinetic properties of “dual” orexin receptor antagonists at OX1R and OX2R orexin receptors” (Frontiers in Neuroscience, 2013)

Experiments:
rat OX1R = molecular target: T1, rat OX1R (Rattus norvegicus, UniProt P56718); assay: FLIPR orexin A-stimulated calcium accumulation, rat OX1R; type: cell-based; settings: HEK cells
T1 construct: expressed in transfected cells; host or cells: HEK; cells from GNF, San Diego
T1 sequence (P56718 1-416): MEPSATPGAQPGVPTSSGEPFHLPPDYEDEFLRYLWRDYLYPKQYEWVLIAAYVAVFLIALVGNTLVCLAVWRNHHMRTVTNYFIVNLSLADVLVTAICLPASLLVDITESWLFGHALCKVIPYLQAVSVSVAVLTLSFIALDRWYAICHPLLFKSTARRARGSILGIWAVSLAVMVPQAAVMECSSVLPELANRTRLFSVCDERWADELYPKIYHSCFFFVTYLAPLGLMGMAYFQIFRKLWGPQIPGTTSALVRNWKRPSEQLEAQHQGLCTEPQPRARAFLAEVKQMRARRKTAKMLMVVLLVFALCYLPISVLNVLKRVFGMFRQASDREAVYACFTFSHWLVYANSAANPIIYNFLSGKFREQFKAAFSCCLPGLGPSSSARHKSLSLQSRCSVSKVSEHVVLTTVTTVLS
Experimental: (§1) Chinese Hamster Ovary (CHO) cells stably transfected with the cDNA encoding the human OX1R (CHO-hOX1) or OX2R (CHO-hOX2) were used (kindly provided by T. Cremer and Dr. S. Geisse, NIBR Basel, Switzerland). For measurements of calcium accumulation using FLIPR® (Fluorescent Imaging Plate Reader) assay, CHO or Human Embryonic Kidney (HEK) cells stably expressing mouse, rat or human OX1R or OX2R (kindly provided by Dr. A. Chen, GNF, San Diego, CA, USA) were used. All cells were cultured in 1:1 Dulbecco's Modified Eagle's Medium (DMEM)/Ham's F12 Nutrients Mixture (F12) supplemented with 10% (v/v) fetal bovine serum (FBS), 100 μ/ml (100 g/ml)/streptomycin (100 μg/ml), Fungizone (250 μg/ml), and Geneticin (G418, 50 mg/ml). Cells were maintained in a humidified incubator at 37°C in 5% CO2. For crude cell membrane preparations, cells were washed and harvested in 10 mM HEPES (pH 7.5), and centrifuged at 4°C for 5 min at 2500 g. The cell pellet was either stored at −80°C or used directly.
(§2) Cells expressing either human, rat or mouse OX1R or OX2R were seeded at 8,000 cells/well in black 384 well clear bottom plates and incubated overnight at 37°C. The following day, medium was discarded and cells loaded with 50 μ l of 1 mM Fluo-4 AM (Invitrogen F14202) in dimethyl sulfoxide in working buffer (Hanks' balanced salt solution, 10 mM HEPES) and incubated for 60 min at 37°C. The loading buffer was removed and cells were washed with 100 μ l working buffer containing […], 0.1% BSA, and 2.5 mM Probenecid (pH 7.4) to remove the excess Fluo-4 AM. […] The assay plate was then transferred to the Molecular Devices-FLIPR384. The baseline calcium signal was recorded for 10 s, then the antagonist of interest was injected (10 μl at 3 times the final concentration) and the calcium signal recorded every second for 1 min, then every 2 s 40 times. Plates were then incubated at room temperature for 30 min, 1, 2, or 4 h.

human OX2R = molecular target: T2, human OX2R (Homo sapiens, UniProt O43614); assay: FLIPR orexin A-stimulated calcium accumulation, human OX2R; type: cell-based; settings: CHO cells
T2 construct: expressed in transfected cells; host or cells: CHO; cells from GNF, San Diego
T2 sequence (O43614 1-444): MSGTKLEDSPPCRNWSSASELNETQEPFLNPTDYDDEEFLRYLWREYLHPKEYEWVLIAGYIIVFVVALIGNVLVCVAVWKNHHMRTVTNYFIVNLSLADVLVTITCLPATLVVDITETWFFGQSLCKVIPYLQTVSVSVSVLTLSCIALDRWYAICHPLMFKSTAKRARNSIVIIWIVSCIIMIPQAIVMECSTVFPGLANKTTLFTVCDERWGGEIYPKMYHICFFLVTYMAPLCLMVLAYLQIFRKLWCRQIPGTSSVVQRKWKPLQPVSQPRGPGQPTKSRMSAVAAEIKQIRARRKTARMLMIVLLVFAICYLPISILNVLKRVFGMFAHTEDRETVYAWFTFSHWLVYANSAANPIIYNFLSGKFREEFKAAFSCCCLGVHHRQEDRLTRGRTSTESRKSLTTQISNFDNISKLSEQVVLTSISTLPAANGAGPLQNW
Text: as §1, with “All cells were cultured in 1:1 Dulbecco's Modified Eagle's Medium (DMEM)/Ham's F12 Nutrients Mixture (F12) supplemented with 10% (v/v) fetal bovine serum (FBS), 100 μ/ml (100 g/ml)/streptomycin (100 μg/ml), Fungizone (250 μg/ml), and Geneticin (G418, 50 mg/ml).” left out
as §2, with “times.” for “times. Plates were then incubated at room temperature for 30 min, 1, 2, or 4 h.”

SMILES: CNC(=O)[C@@H](c1ccccc1)N1CCc2cc(OC)c(OC)cc2[C@@H]1CCc1ccc(C(F)(F)F)cc1 [Almorexant]
- Ki (rat OX1R; antagonist incubation 30 min): 12.6 nM
- Ki (rat OX1R; antagonist incubation 1 h): 12.6 nM
- Ki (rat OX1R; antagonist incubation 2 h): 11.2 nM
- Ki (rat OX1R; antagonist incubation 4 h): 17.4 nM
- pKi (human OX2R; antagonist incubation 30 min): 8.33 −log M
- Ki (human OX2R; antagonist incubation 1 h): 1.51 nM
- Ki (human OX2R; antagonist incubation 2 h): 1.58 nM
- Ki (human OX2R; antagonist incubation 4 h): 0.813 nM

SMILES: Cc1ccc(-c2ncccn2)c(C(=O)N2C[C@H](COc3ccc(F)cn3)CC[C@H]2C)c1 [Filorexant]
- Ki (rat OX1R; antagonist incubation 30 min): 0.759 nM
- Ki (rat OX1R; antagonist incubation 1 h): 0.617 nM
- Ki (rat OX1R; antagonist incubation 2 h): 0.501 nM
- Ki (rat OX1R; antagonist incubation 4 h): 1.2 nM
- Ki (human OX2R; antagonist incubation 30 min): 0.355 nM
- Ki (human OX2R; antagonist incubation 1 h): 0.224 nM
- Ki (human OX2R; antagonist incubation 2 h): 0.186 nM
- Ki (human OX2R; antagonist incubation 4 h): 0.17 nM

SMILES: COc1ccnc(N2CCC3(CCCN(Cc4c[nH]c5ccccc45)C3=O)CC2)n1 [IPSU, 2-((1H-Indol-3-yl)methyl)-9-(4-methoxypyrimidin-2-yl)-2,9-diazaspiro[5.5]undecan-1-one]
- Ki (rat OX1R; antagonist incubation 30 min): 224 nM
- Ki (rat OX1R; antagonist incubation 1 h): 240 nM
- Ki (rat OX1R; antagonist incubation 2 h): 275 nM
- Ki (rat OX1R; antagonist incubation 4 h): 562 nM
- Ki (human OX2R; antagonist incubation 30 min): 10 nM
- Ki (human OX2R; antagonist incubation 1 h): 10.7 nM
- Ki (human OX2R; antagonist incubation 2 h): 15.1 nM
- Ki (human OX2R; antagonist incubation 4 h): 20.9 nM

SMILES: Cc1nc(C(=O)N2CCCC[C@H]2CNC(=O)c2cccc3occc23)c(-c2ccc(F)cc2)s1 [SB-649868]
- Ki (rat OX1R; antagonist incubation 30 min): 0.257 nM
- Ki (rat OX1R; antagonist incubation 1 h): 0.126 nM
- Ki (rat OX1R; antagonist incubation 2 h): 0.0676 nM
- Ki (rat OX1R; antagonist incubation 4 h): 0.0724 nM
- Ki (human OX2R; antagonist incubation 30 min): 0.302 nM
- Ki (human OX2R; antagonist incubation 1 h): 0.372 nM
- Ki (human OX2R; antagonist incubation 2 h): 0.17 nM
- Ki (human OX2R; antagonist incubation 4 h): 0.151 nM
